Tested on: HCC1937
Test: normalised response (% of control), CellTox Green; higher = less cell death (100 = DMSO, 0 = benzethonium chloride kill control)
Conditions: incubation time: 72 h
How it was run: (§1)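 In 384-well plates holding compound at 5 concentrations in 10-fold steps over a 10,000-fold range specific to each compound, breast cancer cell lines were seeded as 20 µl suspension and incubated 72 h. CellTox Green fluorescence was measured at 485/520 nm, after which CellTiter-Glo luminescence was measured following 10 min at room temperature. Plate signals were normalised to 0.1 % DMSO (100) and a positive kill control (0), and each value is the normalised signal at a single concentration.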

| SMILES | normalised response |
| --- | --- |
| CC(C)N(CCCNC(=O)Nc1ccc(C(C)(C)C)cc1)C[C@H]1O[C@@H](n2cc(Br)c3c(N)ncnc32)[C@H](O)[C@@H]1O [SGC0946] (1000 nM) | 93.1% |

Tested on: BT-474
Test: as above
Conditions: incubation time: 72 h
How it was run: as §1

| SMILES | normalised response |
| --- | --- |
| Cc1c(Cn2c(C)nc3c(C(=O)O)cc(N4CCOCC4)cc32)cccc1C(F)(F)F (1000 nM) | 102% |
| CCCCC/C=C/C=C1/C(=O)C=C[C@@H]1C/C=C\CCCC(=O)O [15D-PGJ2] (80 nM) | 98.9% |
| CS(=O)(=O)N1CCN(Cc2cc3nc(-c4cccc5[nH]ncc45)nc(N4CCOCC4)c3s2)CC1 [Pictilisib] (1000 nM) | 97.5% |
| c1cc(CN2CCCNCCNCCCNCC2)ccc1CN1CCCNCCNCCCNCC1 [Plerixafor] (1000 nM) | 95.2% |
| CC(C)N(CCCNC(=O)Nc1ccc(C(C)(C)C)cc1)C[C@H]1O[C@@H](n2cc(Br)c3c(N)ncnc32)[C@H](O)[C@@H]1O [SGC0946] (1000 nM) | 97.3% |

Tested on: CAL-51
Test: as above
Conditions: incubation time: 72 h
How it was run: as §1

| SMILES | normalised response |
| --- | --- |
| Cc1c(Cn2c(C)nc3c(C(=O)O)cc(N4CCOCC4)cc32)cccc1C(F)(F)F (1000 nM) | 100% |
| CCCCC/C=C/C=C1/C(=O)C=C[C@@H]1C/C=C\CCCC(=O)O [15D-PGJ2] (80 nM) | 113% |
| CS(=O)(=O)N1CCN(Cc2cc3nc(-c4cccc5[nH]ncc45)nc(N4CCOCC4)c3s2)CC1 [Pictilisib] (1000 nM) | 92.7% |
| c1cc(CN2CCCNCCNCCCNCC2)ccc1CN1CCCNCCNCCCNCC1 [Plerixafor] (1000 nM) | 89.1% |
| CC(C)N(CCCNC(=O)Nc1ccc(C(C)(C)C)cc1)C[C@H]1O[C@@H](n2cc(Br)c3c(N)ncnc32)[C@H](O)[C@@H]1O [SGC0946] (1000 nM) | 100% |

Tested on: Hs578T
Test: as above
Conditions: incubation time: 72 h
How it was run: as §1

| SMILES | normalised response |
| --- | --- |
| Cc1c(Cn2c(C)nc3c(C(=O)O)cc(N4CCOCC4)cc32)cccc1C(F)(F)F (1000 nM) | 105% |
| CS(=O)(=O)N1CCN(Cc2cc3nc(-c4cccc5[nH]ncc45)nc(N4CCOCC4)c3s2)CC1 [Pictilisib] (1000 nM) | 108% |

Tested on: MDA-MB-436
Test: as above
Conditions: incubation time: 72 h
How it was run: as §1

| SMILES | normalised response |
| --- | --- |
| Cc1c(Cn2c(C)nc3c(C(=O)O)cc(N4CCOCC4)cc32)cccc1C(F)(F)F (1000 nM) | 107% |
| CCCCC/C=C/C=C1/C(=O)C=C[C@@H]1C/C=C\CCCC(=O)O [15D-PGJ2] (80 nM) | 116% |
| CS(=O)(=O)N1CCN(Cc2cc3nc(-c4cccc5[nH]ncc45)nc(N4CCOCC4)c3s2)CC1 [Pictilisib] (1000 nM) | 99.6% |
| CC(C)N(CCCNC(=O)Nc1ccc(C(C)(C)C)cc1)C[C@H]1O[C@@H](n2cc(Br)c3c(N)ncnc32)[C@H](O)[C@@H]1O [SGC0946] (1000 nM) | 97.8% |

Tested on: CAL-148
Test: as above
Conditions: incubation time: 72 h
How it was run: as §1

| SMILES | normalised response |
| --- | --- |
| Cc1c(Cn2c(C)nc3c(C(=O)O)cc(N4CCOCC4)cc32)cccc1C(F)(F)F (1000 nM) | 107% |
| CCCCC/C=C/C=C1/C(=O)C=C[C@@H]1C/C=C\CCCC(=O)O [15D-PGJ2] (80 nM) | 103% |
| CS(=O)(=O)N1CCN(Cc2cc3nc(-c4cccc5[nH]ncc45)nc(N4CCOCC4)c3s2)CC1 [Pictilisib] (1000 nM) | 53.4% |
| c1cc(CN2CCCNCCNCCCNCC2)ccc1CN1CCCNCCNCCCNCC1 [Plerixafor] (1000 nM) | 92.3% |

Tested on: MDA-MB-468
Test: as above
Conditions: incubation time: 72 h
How it was run: as §1

| SMILES | normalised response |
| --- | --- |
| Cc1c(Cn2c(C)nc3c(C(=O)O)cc(N4CCOCC4)cc32)cccc1C(F)(F)F (1000 nM) | 125% |
| CCCCC/C=C/C=C1/C(=O)C=C[C@@H]1C/C=C\CCCC(=O)O [15D-PGJ2] (80 nM) | 155% |
| CS(=O)(=O)N1CCN(Cc2cc3nc(-c4cccc5[nH]ncc45)nc(N4CCOCC4)c3s2)CC1 [Pictilisib] (1000 nM) | 45.4% |
| c1cc(CN2CCCNCCNCCCNCC2)ccc1CN1CCCNCCNCCCNCC1 [Plerixafor] (1000 nM) | 85% |
| CC(C)N(CCCNC(=O)Nc1ccc(C(C)(C)C)cc1)C[C@H]1O[C@@H](n2cc(Br)c3c(N)ncnc32)[C@H](O)[C@@H]1O [SGC0946] (1000 nM) | 111% |

Tested on: MFM-223
Test: as above
Conditions: incubation time: 72 h
How it was run: as §1

| SMILES | normalised response |
| --- | --- |
| Cc1c(Cn2c(C)nc3c(C(=O)O)cc(N4CCOCC4)cc32)cccc1C(F)(F)F (1000 nM) | 105% |
| CCCCC/C=C/C=C1/C(=O)C=C[C@@H]1C/C=C\CCCC(=O)O [15D-PGJ2] (80 nM) | 101% |
| CS(=O)(=O)N1CCN(Cc2cc3nc(-c4cccc5[nH]ncc45)nc(N4CCOCC4)c3s2)CC1 [Pictilisib] (1000 nM) | 76.8% |
| c1cc(CN2CCCNCCNCCCNCC2)ccc1CN1CCCNCCNCCCNCC1 [Plerixafor] (1000 nM) | 97.4% |
| CC(C)N(CCCNC(=O)Nc1ccc(C(C)(C)C)cc1)C[C@H]1O[C@@H](n2cc(Br)c3c(N)ncnc32)[C@H](O)[C@@H]1O [SGC0946] (1000 nM) | 98.4% |

Tested on: CAL-120
Test: as above
Conditions: incubation time: 72 h
How it was run: as §1

| SMILES | normalised response |
| --- | --- |
| Cc1c(Cn2c(C)nc3c(C(=O)O)cc(N4CCOCC4)cc32)cccc1C(F)(F)F (1000 nM) | 109% |
| CCCCC/C=C/C=C1/C(=O)C=C[C@@H]1C/C=C\CCCC(=O)O [15D-PGJ2] (80 nM) | 108% |
| CS(=O)(=O)N1CCN(Cc2cc3nc(-c4cccc5[nH]ncc45)nc(N4CCOCC4)c3s2)CC1 [Pictilisib] (1000 nM) | 100% |
| c1cc(CN2CCCNCCNCCCNCC2)ccc1CN1CCCNCCNCCCNCC1 [Plerixafor] (1000 nM) | 96.6% |
| CC(C)N(CCCNC(=O)Nc1ccc(C(C)(C)C)cc1)C[C@H]1O[C@@H](n2cc(Br)c3c(N)ncnc32)[C@H](O)[C@@H]1O [SGC0946] (1000 nM) | 95.7% |
